The values that follow come from US4889871A, “Alkoxy-substituted dihydrobenzopyran-2-carboxylate derivatives” (G. D. Searle & Co., priority 1988, dated 1989).

The target of one experiment is T1, LTB4 receptor (Homo sapiens, UniProt Q15722).
T1 construct: Neutrophils were purified from venous blood of normal human donors; endogenous in cells; host or cells: purified human blood neutrophils (intact cells)
The experiment in a line: LTB4 receptor binding assay ((3H) LTB4, human neutrophils). To be noted: Table 1. The method, then:
Neutrophils (4-6×10^6) in 1 ml Hanks' balanced salt solution containing 10 mM HEPES buffer (HBSS), pH 7.4 and 30 μM nordihydroguaiaretic acid were incubated with 0.6×10^-9 M (^3 H) LTB4 in the presence or absence of test compounds. The incubation was carried out at 0° C. for 45 minutes and terminated by adding 5 ml of ice-cold HBSS followed by rapid filtration of incubation mixture under vacuum through GF/C glass fiber filters. The filters were further washed with 10 ml HBSS and radioactivity was determined. Specific binding was defined as the difference between total binding and nonspecific binding which was not displaced by 10^-7 M unlabeled LTB4. All data refer to specific binding.

For experiment [1], the system named is human neutrophils. The experiment can be described thus: Human neutrophil degranulation assay (LTB4-induced, myeloperoxidase release). In kind it is cell-based. To be noted: Table 1, LTB4 (5×10^-8 M). On the procedure: Neutrophils were purified from venous blood of normal human donors using standard techniques of dextran sedimentation, centrifugation on Ficoll-paque® (Pharmacia) or Histopaque® sterile solution (Sigma) and hypotonic lysis of erythrocytes (Boyum, A., Isolation of Leukocytes From Human Blood: Further Observations. Scand. J. Lab. Clin. Invest., 21 (Suppl. 97): 31, 1968). The purity of isolated neutrophils was >95%.
Neutrophil degranulation was determined by measuring the release of myeloperoxidase activity into the incubation medium. Neutrophils (3×10^6) in 1 ml HBSS solution were preincubated with cytochalasin B (5 μg) at 37° C. for 5 minutes, followed by preincubation with test compounds for 7 minutes. Neutrophils were then incubated for 2 to 20 minutes with either LTB4 (5×10^-8 M) or the chemotactic peptide f-met-leu-phe (5×10^-6 M) to induce degranulation. Following incubation, samples were centrifuged and myeloperoxidase was extracted from the cell pellets by sonication in phosphate buffer containing 0.4% Triton X-100. Triton X-100 was also added to the supernatants to a concentration of 0.4%. The supernatants and the pellet - extracts were then assayed spectrophotometrically for myeloperoxidase activity by determining the rate of decomposition of H2 O2 with o-dianisidine as hydrogen donor as described by Renlund, et al. (Renlund, D. G., MacFarlane, J. L., Christensen, R. D., Lynch, R. E., and Rothstein, G., A Quantitative And Sensitive Method For Measurement Of Myeloperoxidase, Clinical Research 28:75A, 1980). Myeloperoxidase activity released into the supernatant was expressed as the percent of the average total activity (pellet plus supernatant).

Experiment [2] relates to human neutrophils. The experiment in a line: Modified Boyden chamber chemotaxis (LTB4, human neutrophils). In kind it is cell-based. To be noted: Neutrophil; for inhibition at 1 µM: 10^-6 M. The method, then:
Human neutrophils were isolated from citrated peripheral blood using standard techniques of dextran sedimentation, followed by centrifugation on Histopaque® sterile solution (Sigma) or Ficoll-paque® (Pharmacia) and hypotonic lysis of erythrocytes. A final cell suspension of 3.4×10^6 neutrophils/ml of HEPES-buffered Hanks balanced salt solution (HBSS, pH 7.3) was added to the upper well (0.8 ml) of a modified Boyden chamber (blind well). The lower well (0.2 ml), separated by a polycarbonate membrane (Nuleopore Corp.), contained HBSS or 3×10^-8 M LTB4 in the presence of absence of test compound. Following a 90 minute incubation at 37° C. in 5% CO2 -95% air, cells from the lower well were lysed and nuclei counted in a Model S-Plus-IV Coulter Counter. Percent inhibition was calculated from cell counts corrected for random migration by subtracting the mean of the HBSS control.

The target in a further experiment is T2, LTD4 receptor (Cavia porcellus, UniProt Q2NNR5).
T2 construct: from tissue; host or cells: lung membranes of male Hartley guinea pigs
T2 sequence (Q2NNR5 1-340): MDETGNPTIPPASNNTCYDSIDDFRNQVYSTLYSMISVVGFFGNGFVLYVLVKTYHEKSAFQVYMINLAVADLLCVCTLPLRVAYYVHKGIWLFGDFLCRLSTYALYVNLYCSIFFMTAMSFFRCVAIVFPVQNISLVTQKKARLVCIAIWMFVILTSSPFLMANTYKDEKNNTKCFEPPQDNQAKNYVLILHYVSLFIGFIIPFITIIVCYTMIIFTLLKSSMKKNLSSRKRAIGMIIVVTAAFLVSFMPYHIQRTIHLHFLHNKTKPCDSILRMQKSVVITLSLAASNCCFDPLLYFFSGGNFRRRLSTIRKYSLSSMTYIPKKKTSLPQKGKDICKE
The experiment in a line: LTD4 receptor binding assay using guinea pig lung membrane preparations. To be noted: for Receptor Binding LTD4 IC50: Table 1, results are from Table 3, 10^-5 M. The method, then:
MEMBRANE PREPARATIONS: For each membrane preparation, 10-11 male Hartley guinea pigs, weighing less than 350 gm, were sacrificed by guillotine. The lungs were rapidly removed and placed in ice-cold 50 mM Trisma 7.0 buffer. After all the lungs were collected, each was probed free of bronchial tissue to at least the level of tertiary branching as observed through a dissecting lamp. The tissue was minced with a razor blade on a damp paper towel and placed into fresh ice-cold Trisma 7.0 buffer. When all the tissues had been processed, they were pooled, drained and weighed. Nine volumes of cold buffer were added and the tissue was polytroned for 6-10 second bursts with a 1 minute cool down period in an ice bath between each burst. The homogenate was filtered through a gauze pad and centrifuged at 1085× g for 15 minutes at 4° C. Supernatants were saved and centrifuged at 40,000× g for 20 minutes at 4° C. This time, supernatants were discarded and the pellets were resuspended in 30-35 ml fresh Trisma 7.0 buffer by 1-10 second bursts with the polytron. The materials were centrifuged again at 40,000× g. Supernatants were again discarded. Each pellet was resuspended again with approximately 7 ml buffer. All this material was pooled into a 100 ml polypropylene container and stirred with a magnetic stirring bar. The tubes were rinsed with small amounts of buffer and the rinse was added to the membrane preparation. The homogenized membranes were aliquoted into 1.5 ml microfuge tubes and frozen at -70° C. Three aliquots were submitted for protein determinations by FPB (fluorescamine protein binding) assay.
Unless otherwise indicated, all binding experiments were performed in a final incubation volume of 250 μl. […] Both materials were received in solutions. […] Both solutions were brought to appropriate assay concentrations by dilution in assay buffer consisting of 50 mM Trisma 7.4 with 5 mM L-cysteine and 20 mM CaCl2. Membranes were also diluted with this assay buffer. […] Diluent was added to all other appropriate control tubes. Incubations were conducted for 30 minutes at 25° C. in a shaking water bath. Termination of the reaction was achieved by pouring the incubate over 2.5 cm Whatman GF/C filters soaked in assay buffer and set over the ports of Millipore filter vacuum manifolds. Filters were rinsed with 4 ml ice cold assay buffer 3 times. The filters were removed, placed in 10 ml Aquasol scintillation cocktail and allowed to cool in the dark for 2 hours prior to counting. All samples were corrected for background and isotope decay before converting DPM determination to mass.
These values were logit-transformed and linear regression was performed on the dose-response data. All dose-response sets used to calculate IC50 values contained data from 3-6 compound concentrations. […] IC50 values were calculated from the regression equation for the line.
male guinea pig lung homogenate which was aliquoted and stored at
-70° C. The particular preparation used to test the compounds of
Protein concentrations in these assays were adjusted
to provide aproximately 0.1 nM receptor in the presence of lnM ^3
HLTD4. Incubation was conducted for 30 min.
at 24° C. and filtration methods were used to separate bound from
tested were intially solubilized in DMSO. Each compound was evaluated at
dose of 10 μM (10^-5 M) in triplicate in 2 separate assays. The

Setting [3] is: read-out: LTD4 Receptor Binding Activity, 10 μM.
Setting [4] is: read-out: LTD4 Receptor Binding Percent Inhibition, Test #1, 10 μM, triplicate, 30 min, 24° C.
The mark [5] stands for this setting: read-out: LTD4 Receptor Binding Percent Inhibition, Test #2, 10 μM, triplicate, 30 min, 24° C.
Setting [6] is: read-out: Chemotaxis (Boyden) percent inhibition.

Each structure is given as a SMILES string. Where two headings read alike, the source gives them in different places.

T1 sequence (Q15722 whole entry): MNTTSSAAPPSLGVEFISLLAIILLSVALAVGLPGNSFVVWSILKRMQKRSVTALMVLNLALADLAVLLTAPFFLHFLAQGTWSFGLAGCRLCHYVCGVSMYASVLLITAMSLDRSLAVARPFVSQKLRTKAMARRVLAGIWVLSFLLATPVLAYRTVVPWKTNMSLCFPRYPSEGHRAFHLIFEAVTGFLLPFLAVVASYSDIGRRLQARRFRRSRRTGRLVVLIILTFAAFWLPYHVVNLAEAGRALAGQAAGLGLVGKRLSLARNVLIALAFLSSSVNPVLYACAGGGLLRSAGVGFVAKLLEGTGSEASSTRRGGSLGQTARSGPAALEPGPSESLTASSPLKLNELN

What is called IC50 is the concentration at which inhibition is half-maximal. Lower therefore signals greater potency in that assay. On to `CCCc1c(OCCCOc2ccc(C(C)=O)c(OC)c2CC2CC2)ccc2c1OC(C(=O)O)CC2` (stereo not drawn) [Example 3, 7-[3-[4-acetyl-2-(cyclopropylmethyl)-3-methoxyphenoxy]propoxy]-3,4-dihydro-8-propyl-2H-1-benzopyran-2-carboxylic acid], for which the concentration for half-maximal inhibition (IC50) on LTB4 receptor was found to be 190 nM; in the experiment on human neutrophils [1], 180 nM; with human neutrophils [2], 200 nM.
Regarding `CCCc1c(OC2CCC(Oc3ccc(C(C)=O)c(OC)c3CCC)C2)ccc2c1OC(C(=O)O)CC2` (stereo not drawn) [Example 4, 7-[[3-(4-acetyl-3-methoxy-2-propylphenoxy)cyclopentyl]oxy]-3,4-dihydro-8-propyl-2H-1-benzopyran-2-carboxylic acid], the half-inhibitory concentration (IC50) at LTB4 receptor came out at 5000 nM; in the experiment with human neutrophils [1], 2700 nM. Also, in the experiment on human neutrophils [2] (10^-8 M, read-out: Chemotaxis (Boyden) percent inhibition), the inhibition at 0.01 µM was 62%.
On to `C=CCc1c(OCCCOc2ccc3c(c2CCC)OC(C(=O)O)CC3)ccc(C(C)=O)c1OC` (stereo not drawn) [Example 5, 7-[3-[4-acetyl-3-methoxy-2-(2-propenyl)phenoxy]propoxy]-3,4-dihydro-8-propyl-2H-1-benzopyran-2-carboxylic acid], for which the IC50 worked out at 100 nM on LTB4 receptor, 400 nM in the experiment with human neutrophils [1] and 500 nM in the experiment on human neutrophils [2].
As to `CCCc1c(OCCCOc2ccc3c(c2)OC(C(=O)O)CC3)ccc(C(C)=O)c1OC` (stereo not drawn) [Example 6, 7-[3-(4-acetyl-3-methoxy-2-propylphenoxy)propoxy]-3,4-dihydro-2H-1-benzopyran-2-carboxylic acid], the results for the IC50 on LTB4 receptor and in the experiment on human neutrophils [1] were 2600 nM and 8000 nM, respectively. Also, at LTD4 receptor, the “Receptor Binding LTD4 IC50” value was “Inactive”. Moreover, the inhibition at 10 µM on LTD4 receptor (setting [3]) was less than 45%; at LTD4 receptor (setting [4]) it was 1.63%; at LTD4 receptor (setting [5]), 26%. Also, in the experiment with human neutrophils [2] (setting [6]), the inhibition at 1 µM came to 48%.
On LTB4 receptor, `CCCc1c(OCCCOc2ccc(C(C)=O)c(OC)c2CCC)ccc2c1OC(C(=O)NC)CC2` (stereo not drawn) [Example 8, 7-[3-(4-acetyl-3-methoxy-2-propylphenoxy)propoxy]-3,4-dihydro-N-methyl-8-propyl-2H-1-benzopyran-2-carboxamide] displayed an IC50 of 1800 nM. Also, the inhibition at 1 µM with human neutrophils [2] (setting [6]) is 12%.
For `CCCc1c(OCCCOc2ccc3c(c2CCC)OC(C)(CCC(=O)O)CC3=O)ccc(C(C)=O)c1OC` (stereo not drawn) [Example 16, 7-[3-(4-acetyl-3-methoxy-2-propylphenoxy)propoxy]-3,4-dihydro-2-methyl-4-oxo-8-propyl-2H-1-benzopyran-2-propanoic acid], the IC50 worked out at 250 nM at LTB4 receptor, 550 nM in the experiment with human neutrophils [1] and 650 nM in the experiment with human neutrophils [2]. Further, on LTD4 receptor, the “Receptor Binding LTD4 IC50” value is on record as “Inactive”. In addition, the inhibition at 10 µM on LTD4 receptor (setting [3]) is less than 45%; on LTD4 receptor (setting [4]), 16.5%; at LTD4 receptor (setting [5]), 24.1%.
Turning to `CCCc1c(OCC#CCOc2ccc3c(c2CCC)OC(C)(CCC(=O)O)CC3=O)ccc(C(C)=O)c1OC` (stereo not drawn) [Example 17], the results for the half-inhibitory concentration (IC50) on LTB4 receptor and in the experiment with human neutrophils [1] were 800 nM and 2100 nM, respectively. Also, the inhibition at 1 µM with human neutrophils [2] (setting [6]) came out at 31%.
For `CCCc1c(OCCCOc2ccc(C(C)=O)c(OC)c2CCC)ccc2c1CC(C(=O)O)CC2` (stereo not drawn) [Example 18, 7-[3-(4-acetyl-3-methoxy-2-propylphenoxy)propoxy]-1,2,3,4-tetrahydro-8-propyl-2-naphthalenecarboxylic acid], the values for the 50% inhibitory concentration (IC50) at LTB4 receptor and in the experiment with human neutrophils [1] were 370 nM and 2600 nM, respectively. The inhibition at 10 µM in the experiment on human neutrophils [2] (10^-5 M, read-out: Chemotaxis (Boyden) percent inhibition) was 87%.
Turning to `CCCc1c(OCCCOc2ccc(C(=O)C(C)C)c(OC)c2CCC)ccc2c1OC(C(=O)O)CC2` (stereo not drawn) [Example 19, 3,4-dihydro-7-[3-[3-methoxy-4-(2-methyl-1-oxopropyl)-2-propylphenoxy]propoxy]-8-propyl-2H-1-benzopyran-2-carboxylic acid], the IC50 was determined as 1200 nM on LTB4 receptor and 5000 nM with human neutrophils [1]. Further, in the experiment on human neutrophils [2] (setting [6]), the inhibition at 1 µM was 15%.
Consider `CCCc1c(OCCCOc2ccc(C(C)=O)c(OCC)c2CCC)ccc2c1OC(C(=O)O)CC2` (stereo not drawn) [Example 21, 7-[3-(4-acetyl-3-ethoxy-2-propylphenoxy)-propoxy]-3,4-dihydro-8-propyl-2H-1-benzopyran-2-carboxylic acid], for which the IC50 on LTB4 receptor stood at 1000 nM.
For the compound `CCCc1c(OCCCOc2ccc3c(=O)cc(CCC(=O)O)oc3c2CCC)ccc(C(C)=O)c1OC` [Example 22, 7-[3-(4-acetyl-3-methoxy-2-propylphenoxy)propoxy]-4-oxo-8-propyl-4H-1-benzopyran-2-propanoic acid], the values for the IC50 at LTB4 receptor, in the experiment with human neutrophils [1] and in the experiment on human neutrophils [2] were 500 nM, 1600 nM and 1200 nM, respectively.
`CCCc1c(OCC(O)COc2ccc3c(=O)cc(C(=O)O)oc3c2CCC)ccc(C(C)=O)c1O` (stereo not drawn) [FPL 55712, reference compound] showed an IC50 at LTD4 receptor of 10400 nM. In addition, the inhibition at 10 µM on LTD4 receptor (read-out: LTD4 Receptor Binding Activity) is greater than 45%; on LTD4 receptor (read-out: LTD4 Receptor Binding Percent Inhibition, Test #1), 54.7%; at LTD4 receptor (read-out: LTD4 Receptor Binding Percent Inhibition, Test #2) it was 47%.
